Assay results from a melting point compilation (Tetko et al.).

Row | Compound | melting point [°C]
1 | Cc1cc(Cl)c(Cl)c(Cl)c1 | 45.5
2 | C#CC(O)CCC (stereo unspecified) | -80
3 | FC(Cl)(Cl)CCl | -140
4 | O=C(CCl)c1cc(C(=O)CCl)c([N+](=O)[O-])cc1[N+](=O)[O-] | 148
5 | O=C1Cc2cccc(F)c21 | 41
6 | CCC(=O)OCC(C)C | -71.4
7 | COC(=O)CCC(C)C1CCC2C3C=CC4CCCCC4(C)C3CCC12C (stereo unspecified) | 60
8 | CC(CC(C)(C)O)OC(O)C(Cl)(Cl)Cl (stereo unspecified) | 103
9 | S=C(SN1CCOCC1)N1CCOCC1 | 139
10 | CC1=C(C(=O)OC(C)C)C(c2ccc3c(c2)OCO3)NC(=O)N1 (stereo unspecified) | 186
11 | CN(Cc1cc(Br)cc(Br)c1N)C1CCCCC1 | 238
12 | COc1cc(OC)cc(C(C)=O)c1 | 40
13 | Cc1cc(C=O)nn1C | 56 to 57
14 | O=c1oc2ccccc2c(O)c1C1CCCc2ccccc21 (stereo unspecified) | 174
15 | NC(=S)c1cnccc1C(F)(F)F | 153 to 156
16 | Ic1ccc(N2CCOCC2)nc1 | 133
17 | Cc1nc(C#N)cs1 | 58
18 | C=CCCCCCCCCCCC | -13
19 | CCCCCCCCCCCC1CCCC1 | -10
20 | CC(=O)OCC(=O)C1CCC2C3CCC4=CC(=O)CCC4(C)C3CCC12C (stereo unspecified) | 157
21 | O=C(O)c1cnccn1 | 222 to 225

Row | Compound | melting point [°C]
22 | N#Cc1sc2c(=O)c3ccccc3c(=O)c=2sc1C#N | 225
23 | Clc1ccc(C(Cl)(Cl)Cl)cc1Cl | 25.8
24 | OCC1OC(n2cnc3c(S)ncnc32)C(O)C1O (stereo unspecified) | 218 to 221
25 | ON=C1CCCc2nnc3c(c21)CCCC3 | 269 to 271
26 | CCCCC(=O)Cl | -110
27 | Cc1[nH]c(=O)n(C(C)(C)C)c(=O)c1Cl | 176
28 | CC12CCC(C(CO)C1=O)C2(C)C (stereo unspecified) | 138
29 | Nc1ccc([N+](=O)[O-])cc1O | 208
30 | C[Si](C)(Cl)C(Cl)Cl | -48
31 | CCOC(=O)C=C(C)OCC | 30
32 | CCOc1cc(Oc2ccc(C(F)(F)F)cc2Cl)ccc1[N+](=O)[O-] | 85.3
33 | CCOc1cc(-c2nccc3cc(OC)c(OC)cc23)cc(OCC)c1OCC | 98 to 103
34 | Cc1nccc2c1[nH]c1ccccc12 | 236
35 | CC12CCC=C1C1CCC3=CC(=O)CCC3(C)C1CC2 (stereo unspecified) | 117
36 | CC(=O)OC1(C)Cc2c(C)c(C)c(C)c(C)c21 (stereo unspecified) | 70
37 | O=C(O)CCSC1=CC(=O)C(SCCC(=O)O)=CC1=O | 230 to 236
38 | OCc1ccco1 | -14.6
39 | Cc1cc(O)cc2c1C(=O)CC(C)(C)O2 | 189 to 191
40 | COc1cc(N=C=O)cc(OC)c1 | 34 to 35.5
41 | CN(C)C(CSS(=O)(=O)c1ccccc1)CSS(=O)(=O)c1ccccc1 | 83.5
42 | O=C(CBr)c1cccc2c1OCCCO2 | 55 to 56

Row | Compound | melting point [°C]
43 | Cc1c(O)c(Br)c(Br)c(Br)c1Br | 209 to 213
44 | OCc1cc2c(cc1Cl)OCO2 | 70
45 | CC(=O)CCC(C)C | -74
46 | NC(=O)C(Cl)(Cl)Cl | 142
47 | CCC(C1CCc2cc(O)ccc2C1)C(C)(C)C(=O)O (stereo unspecified) | 163
48 | CBr | -93.7
49 | COC1C(O)C(C)OC(OC2C(Oc3cccc4c(O)c5c(=O)oc6ccc(C)c7c(=O)oc(c34)c5c67)OC(C)C(O)C2O)C1O (stereo unspecified) | 185
50 | Cc1cc(C(=O)NN)nn1C(C)(C)C | 85 to 88
51 | OCc1cc(CO)cc(OCc2cc(COc3cc(CO)cc(CO)c3)cc(COc3cc(CO)cc(CO)c3)c2)c1 | 144
52 | O=[N+]([O-])c1c(O)ncnc1O | 300
53 | CCC1(O)CC2CN(CCc3c([nH]c4ccccc34)C(C(=O)OC)(c3cc4c(cc3OC)N(C)C3C(O)(C(=O)OC)C(OC(C)=O)C5(CC)C=CCN6CCC43C65)C2)C1 (stereo unspecified) | 267
54 | CC/C(=N/NC(N)=O)C1=CC2(C)CCC1C2(C)C (stereo unspecified) | 196 to 197
55 | S=C=Nc1cc(Cl)c(Cl)cc1Cl | 45
56 | O=C(O)CCC12CC3CC(CC(C3)C1)C2 | 147 to 148
57 | CN1CCN(c2ccc(N)cc2)CC1 | 92
58 | Cc1cncc(Cl)n1 | 48 to 52
59 | OC(c1c(F)c(F)c(F)c(F)c1F)c1c(F)c(F)c(F)c(F)c1F | 76 to 80
60 | CC1COc2c(C3(N)CC3)c(F)cc3c(=O)c(C(=O)O)cn1c23 (stereo unspecified) | 269
61 | CCOC(=O)c1cc(Cl)cc(Cl)c1 | 35 to 36
62 | O=C(Oc1c(F)c(F)c(F)c(F)c1F)c1ccncc1 | 47.5 to 55.5
63 | O=C(c1ccccc1)c1c(-c2ccccc2)n(C(=O)c2ccccc2)c2cc([N+](=O)[O-])ccc12 | 204

More lines, now with the values ahead:

Row | melting point [°C] | Compound
64 | 101 to 106 | CCOC(=O)CC(=O)C=P(c1ccccc1)(c1ccccc1)c1ccccc1
65 | 156 | O=C(N[C@@H](Cc1cccc(F)c1)C(=O)O)OCC1c2ccccc2-c2ccccc21
66 | 47 | C[Si](C)(C)C#CC1(O)Cc2ccccc21 (stereo unspecified)
67 | 290 | Nc1nn2c(C(F)(F)F)cc(=O)[nH]c2c1/N=N/c1cccc2ccccc12
68 | 65 to 68 | Cc1ccc(-c2ccc(C)s2)s1
69 | 268 | O=c1[nH]c2ccccc2c(-c2ccccc2)c1O
70 | 190 | Cc1onc(-c2ccccc2Cl)c1C(=O)O
71 | 250 | Cc1c(CCO)c(=O)n2c([nH]c3ccccc32)c1C#N
72 | 179 to 181 | NNC(=O)c1cnn(-c2ccc(Cl)cc2)c1C(F)(F)F
73 | 49 | COc1ccc(O)c(C(C)=O)c1
74 | 280 | O=C1OC2(c3cc(Cl)c(O)cc3Oc3cc(O)c(Cl)cc32)c2ccccc21
75 | 147 to 150 | COc1ccc(OC)c(C=CC(=O)O)c1
76 | 192 | CC(=O)Nc1ccc(C=Cc2ccccc2)c([N+](=O)[O-])c1
77 | 112 | Cc1ccc(C(C)(Cl)C(=O)O)cc1 (stereo unspecified)
78 | 233 to 235 | CSc1nc(N)c2ccccc2n1
79 | 98 to 99 | O=C(C=Cc1ccc(-c2ccccc2)o1)c1ccccc1
80 | 143 to 145 | O=C(O)CCCn1c(C(F)(F)F)nc2ccccc21
81 | 127 to 131 | NCc1ccccc1O
82 | 116 | O=C1C=C(NCCCc2ccccc2)C(=O)c2ccccc21
83 | 195 | O=[N+]([O-])c1ccccc1OC1OC(CO)C(O)C(O)C1O (stereo unspecified)
84 | 158 | Cc1ccccc1N1CCN(CCc2nnc3n2CCCC3)CC1

Row | melting point [°C] | Compound
85 | 78 to 79 | Brc1ccc(-c2cnco2)cc1
86 | 104 to 105 | Cc1nn(-c2ccccc2)nc1C(=O)Cl
87 | 190 to 191 | Cc1noc(-c2ccccc2)c1C(=O)O
88 | 204 to 206 | Cc1ccc(S(=O)(=O)c2ncsc2SCC(N)=O)cc1
89 | 188 | O=C(c1ccccc1)c1noc(-c2ccccc2)c1S(=O)(=O)c1ccccc1
90 | 56 to 60 | Cc1cc(CO)ccc1[N+](=O)[O-]
91 | 93 | Brc1cnc2ccccn12
92 | 129 | COc1ccc(O)c2ccccc12
93 | 119 to 120 | O=C(NCCCCCCO)OCC1c2ccccc2-c2ccccc21
94 | 48 to 50 | CCCc1ccc(C(C)=NO)cc1
95 | 187 | O=C1C=C(O)CC(c2ccccc2)C1 (stereo unspecified)
96 | 226 to 227 | Cc1c(C(=O)O)cc(-c2ccccc2)n1-c1ccccc1
97 | 150 | CN(C)c1ccc(C=Cc2ccccc2)cc1
98 | 172 | Nc1cccc(S(=O)(=O)c2cccc(N)c2)c1
99 | 121 to 123 | Cc1ccc(-c2nnc(CCl)o2)cc1
100 | 152 | O=C(c1ccccc1)c1ccsc1C(=O)O
101 | 97 | CC(=O)/C(=C\N)c1ccccc1
102 | 57 | Cc1ccc(CCCC(=O)O)cc1
103 | 195 to 196 | Cc1nc(N)nc(Cl)c1Cc1ccccc1
104 | 185 to 190 | O=C(O)CCCc1ccc2ccc3cccc4ccc1c2c34
105 | 91 | Nc1cccc2cc[nH]c12

Row | melting point [°C] | Compound
106 | 82 | N#CC(C#N)=C(SCc1ccccc1)SCc1ccccc1
107 | 180 | O=C(OCC1OC(Oc2ccccc2CO)C(O)C(O)C1O)c1ccccc1 (stereo unspecified)
108 | 230 | O=C(Nc1ccc([N+](=O)[O-])cc1Cl)c1cc(Cl)ccc1O
109 | 89 | O=C(O)c1ccc(OC(=O)c2ccccc2)cc1
110 | 157 | O=C(c1ccccc1)c1ccc(-c2ccc(Br)cc2)cc1
111 | 103 | O=C1C2=C(C(=O)c3ccccc31)C1(CC1)C21CC1
112 | 182 to 183 | CC(=O)N1N=C2c3ccccc3CCC2C1c1ccc(Cl)cc1 (stereo unspecified)
113 | 66.8 | CC(=O)C[C@@]1(O)C(=O)c2ccccc2-c2ccccc21
114 | 259 to 260 | CC1(C)OC(=O)C(=NNc2ccc(Br)cc2)C(=O)O1
115 | 239 | O=C(N=c1sc(C(=O)c2cccs2)nn1-c1ccccc1[N+](=O)[O-])c1ccccc1
116 | 133 | O=C(c1ccc([N+](=O)[O-])cc1)c1noc(-c2ccc([N+](=O)[O-])cc2)c1S(=O)(=O)c1ccccc1
117 | 122 | CC(=O)c1cc2ccccc2oc1=O
118 | 51 to 53 | N#Cc1ccc(N2CCCCC2)cc1
119 | 34.5 | Oc1ccccc1C1CCCC1
120 | 167 | CC(=O)OCCN(CCC#N)c1ccc(N=Nc2nc3ccc([N+](=O)[O-])cc3s2)cc1
121 | 123 | Cc1cccc2c1ccc1ccccc12
122 | 66 to 68 | CCCCc1ccc(/N=N/c2ccc(OCCC)cc2)cc1
123 | 241 to 244 | NNc1nc(-c2ccccc2)c2c(N)n[nH]c2n1
124 | 84 | COc1ccc(C#N)c(F)c1F
125 | 131 | O=C(O)c1ccc(CBr)c([N+](=O)[O-])c1
126 | 36 | Cc1ccc(N)cc1I
